Data on one compound can be found in PMC6463794, “Inhibition of CDC25B With WG-391D Impedes the Tumorigenesis of Ovarian Cancer” (Frontiers in Oncology, 2019).

This assay has as its target T1, CDC25B (Homo sapiens, UniProt P30305).
T1 construct: recombinant CDC25B protein
T1 sequence (P30305 1-580): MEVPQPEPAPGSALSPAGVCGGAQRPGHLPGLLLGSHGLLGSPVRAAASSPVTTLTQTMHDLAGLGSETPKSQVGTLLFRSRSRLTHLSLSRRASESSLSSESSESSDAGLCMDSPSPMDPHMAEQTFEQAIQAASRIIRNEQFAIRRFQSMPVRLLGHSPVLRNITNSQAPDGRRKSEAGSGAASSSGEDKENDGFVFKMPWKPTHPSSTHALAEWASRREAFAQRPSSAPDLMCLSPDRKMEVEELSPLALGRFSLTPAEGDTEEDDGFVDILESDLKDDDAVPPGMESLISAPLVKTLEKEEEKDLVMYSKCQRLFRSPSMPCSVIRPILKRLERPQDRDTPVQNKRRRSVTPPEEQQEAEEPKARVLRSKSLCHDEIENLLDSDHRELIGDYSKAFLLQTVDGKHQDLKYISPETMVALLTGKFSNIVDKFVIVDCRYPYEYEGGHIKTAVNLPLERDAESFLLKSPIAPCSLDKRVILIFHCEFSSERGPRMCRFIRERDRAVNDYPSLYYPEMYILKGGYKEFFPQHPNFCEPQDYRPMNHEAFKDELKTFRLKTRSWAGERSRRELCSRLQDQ
Briefly: fluorometric phosphatase assay (3-O-methylfluorescein phosphate) with recombinant CDC25B; positive-control inhibitor, single concentration. The class given is biochemical. The method, then: fluorometric phosphatase assay (3-O-methylfluorescein phosphate) with recombinant CDC25B; positive-control inhibitor, single concentration on CDC25B | CDC25B dephosphorylation catalytic activity was determined by in vitro enzyme assay. ... PC, NSC663284 served as the positive control.

Each structure is given as a SMILES string.

`O=C1C(Cl)=C(NCCN2CCOCC2)C(=O)c2ncccc21` [PC, NSC663284]: the “fluorometric phosphatase assay (3-O-methylfluorescein phosphate) with recombinan” value is listed as “CDC25B dephosphorylation catalytic activity was determined by in vitro enzyme assay. ... PC, NSC663284 served as the positive control”.
